Where a SMILES comes first, the peptide text is derived from it. [ ]: non-standard residue; d: D form. PEG6 = NCCOCCOCCOCCOCCOCCOCCC(=O)O
Tests used:
Alpha-cobratoxin = target: T1, Alpha-cobratoxin (Naja kaouthia, UniProt P01391); assay: Displacement of TAMRA-HAKTYMWDGWYMPTSH-NH2 from Naja kaouthia alpha-cobratoxin by fluorescence polarization assay
T1 sequence (P01391 whole entry): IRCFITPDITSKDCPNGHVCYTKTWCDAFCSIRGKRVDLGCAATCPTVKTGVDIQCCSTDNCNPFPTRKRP

[1] = Stability of compound in PBS buffer assessed as compound degradation measured after 9 days at room temperature by HPLC analysis; type: physicochemical; conditions: time 9 day, read-out: Drug degradation
[2] = Stability of compound in PBS buffer assessed as compound degradation measured after 2 days at 37 degC by HPLC analysis; type: physicochemical; conditions: time 2 day, read-out: Drug degradation
[3] = Stability of compound in PBS buffer measured after 1 day at room temperature by HPLC analysis; type: physicochemical; conditions: 24 h
[4] = Stability of compound in PBS buffer measured after 1 day at 37 degC by HPLC analysis; type: physicochemical; conditions: 24 h

CSCC[C@H](NC(=O)[C@H](Cc1ccc(O)cc1)NC(=O)[C@H](Cc1c[nH]c2ccccc12)NC(=O)CNC(=O)[C@H](CC(=O)O)NC(=O)[C@H](Cc1c[nH]c2ccccc12)NC(=O)[C@H](CCSC)NC(=O)[C@H](Cc1ccc(O)cc1)NC(=O)CCOCCOCCOCCOCCOCCOCCN)C(N)=O (H-[PEG6]YMWDGWYM-NH2)
Ki (Alpha-cobratoxin): 26 µM | degraded at 216 h [1]: 7% | degraded at 48 h [2]: 7% | Stabilty [3]: Stable | Stabilty [4]: Stable

Ac-HAKTYMWDGWYMPTSH-NH2
IC50 (Alpha-cobratoxin): 29 µM | Ki (Alpha-cobratoxin): 2 µM | Stabilty [3]: Stable | Stabilty [4]: Stable

— ChEMBL document CHEMBL4699620, “Peptide Inhibitors of the α-Cobratoxin-Nicotinic Acetylcholine Receptor Interaction” (J Med Chem, 2020)
